Test results from PMC10674299, “Discovery of Guanfacine as a Novel TAAR1 Agonist: A Combination Strategy through Molecular Modeling Studies and Biological Assays” (Pharmaceuticals, 2023).
Read-outs that look alike come from different tables or passages of the source.

How the values were obtained:
[1] = molecular target: T1, hTAAR1 (Homo sapiens, UniProt Q96RJ0); experiment: BRET-based cAMP assay in HEK293 cells transfected with hTAAR1 and cAMP biosensor; type: cell-based; conditions: for EC50: HEK293, dose-response 1 nM to 10 μM, IBMX 200 µM
T1 construct: Plasmid containing the cDNA for hTAAR1 was a generous gift from Hoffman-La Roche; expressed in transfected cells; host or cells: HEK293T (ATCC CRL-11268), transient transfection with Lipofectamine 2000
T1 sequence (Q96RJ0 1-339): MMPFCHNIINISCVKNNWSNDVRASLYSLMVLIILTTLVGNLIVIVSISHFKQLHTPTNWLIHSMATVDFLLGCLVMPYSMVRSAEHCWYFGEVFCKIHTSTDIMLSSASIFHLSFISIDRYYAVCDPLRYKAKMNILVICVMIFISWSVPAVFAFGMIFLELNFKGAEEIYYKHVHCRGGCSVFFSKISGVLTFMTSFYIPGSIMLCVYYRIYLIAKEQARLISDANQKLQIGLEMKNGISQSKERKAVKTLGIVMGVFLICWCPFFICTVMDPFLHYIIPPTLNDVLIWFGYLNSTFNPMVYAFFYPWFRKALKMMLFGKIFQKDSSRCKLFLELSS
Description: hTAAR1 is coupled to stimulatory G proteins and thus its activation induces an increase in the cAMP production. We measured the potential activity of guanfacine and guanabenz by using a BRET-based assay in which HEK293 cells were transfected with hTAAR1, or the empty vector as control, and the cAMP BRET biosensor. […] A dose-response experiment was performed using concentrations ranging from 1 nM to 10 μM to calculate the corresponding EC50 and the Emax values.
Human embryonic kidney 293 cells (HEK293T; ATCC CRL-11268) were maintained in Dulbecco’s Modified Eagle’s medium (DMEM; Gibco-Thermo Fisher Scientific, New York, NY, USA) supplemented with 10% (v/v) of FBS, 2 mM l-glutamine, and 0.05 mg/mL of gentamicin (both from Gibco) at 37 °C in a humidified atmosphere at 95% air and 5% CO2. Transient transfections were performed 24 h after cell seeding using the Lipofectamine reagent 2000 protocol (Invitrogen-Thermo Fisher Scientific, Carlsbad, USA). Then, 5 µg of hTAAR1 and 4 µg of cAMP biosensor protein (EPAC) encoding plasmids (the latter based on pcDNA3 core vector [59]) for each milliliter of transfection mix were used. For the BRET experiments, the cells were plated 6 h after transfection in poly-D-lysine coated 96-well white opaque microplates (Corning, New York, NY, USA) at a density of 7 × 10^4 cells per well in phenol red free Minimum Essential Medium (MEM; Gibco-Thermo Fisher Scientific, New York, NY, USA) containing 2% of FBS, 10 mM HEPES buffering agent, and 2 mM L-glutamine (all from Gibco-Thermo Fisher Scientific, New York, NY, USA). The cells were then cultured for an additional 24 h.
The BRET experiment was conducted as already described. Briefly, for time course experiments, the plate was read immediately after the addition of the agonist and for approximately 20 min. All the experiments were conducted in the presence of the phosphodiesterase inhibitor 3-isobutyl-1-methylxanthine (IBMX; Sigma-Aldrich, St. Louis, MO, USA) at the final concentration of 200 µM. Readings were collected using a Tecan Infinite instrument that allows the sequential integration of the signals detected in the 465 to 505 nm and 515 to 555 nm windows using filters with the appropriate band pass and by using iControl software. The acceptor/donor ratio was then calculated.
All the compounds were dissolved in dimethyl sulfoxide (DMSO; Sigma-Aldrich, St. Louis, MO, USA) and tested at the final concentration of 10 μM. Beta-phenylethylamine (Sigma-Aldrich, St. Louis, MO, USA) at the final concentration of 10 µM was applied as a positive control. To confirm specificity of positive responses, parallel screening on cells not transfected with the TAAR1-encoding vector was carried out. For compounds considered active, separate dose-response experiments were performed in order to calculate the EC50 values. Curves were fitted using a non-linear regression and one site specific binding with GraphPad Prism 6 (GraphPad Software). Data are representative of 4–5 independent experiments and are expressed as means, SD < 10%.

[2] = test system: α2-ADR; conditions: cited from earlier work
[3] = test system: mTAAR1; set-up: method as in PMID 19725810; conditions: cited from earlier work
[4] = test system: mTAAR1; set-up: method as in doi:10.1039/C5MD00400D; conditions: BRET cAMP reporter; cited from earlier work
[5] = molecular target: chimeric receptor cTAAR1; set-up: method as in PMID 19725810; conditions: cited from earlier work
[6] = molecular target: α2-ADR; set-up: method as in PMID 22795332; conditions: cited from earlier work
[7] = molecular target: T1, hTAAR1; conditions: S18616; cited from earlier work
[8] = test system: DAT-KO rats; experiment: Locomotor activity of DAT-KO rats (Actometer); type: in vivo, rat; conditions: 0.1 and 0.3 mg/kg i/p, 60 min, vs vehicle p < 0.001 and p = 0.02 (Bonferroni)
Description: To evaluate the in vivo pharmacological effect of guanfacine, we used a rodent model of hyperdopaminergia, the dopamine transporter knockout (DAT-KO) rats, that also mimics some phenotypic aspect of ADHD and has certain predictive validity for the search of novel pharmacological agents to control hyperactivity and cognitive processes in patients with this disease. […] Thus, the effect of guanfacine on hyperactivity of DAT-KO rats was evaluated.
Results are presented on Figure 15. […] We used the mixed ANOVA (the within-subject factors ‘5-min bin’ (1–12) and ‘dose’ (0.0; 0.1; 0.3 mg/kg), the between-subject factor ‘mutation’ (‘WT’; ‘KO’); the random factor ‘rat #’) on rank-transformed data to analyze results. […] Locomotor activity of the rats decreased from the 1st to the 12th bin (the effect of factor ‘5-min bin’: F(11,51) = 2.51, p = 0.01). The lack of DAT was associated with an increased level of locomotor activity (the effect of factor ‘mutation’: F(1,11) = 222.94, p < 0.001). […] We used Bonferroni’s test for post hoc comparisons. […]
The study was performed in the apparatus ‘Actometer’ described in detail before. […] Following the injection, the locomotor activity of the animals was recorded for an additional 60 min divided in 12 intervals of 5-min each. […]

[9] = set-up: method as in PMID 12351753; conditions: animal studies, cited from earlier work

SMILES: N=C(N)N/N=C/c1c(Cl)cccc1Cl [guanabenz]
- Emax ([1]; HEK293, read-out: hTAAR1 Emax): > 85%
- type of agonism at hTAAR1 ([1]; cAMP BRET, HEK293): full agonists
- EC50 ([1]; cAMP BRET): 10 nM
- EC50 ([2]; guanabenz): ~16.3 nM
- EC50 [3]: 7 nM
- type of agonism at mTAAR1 [3]: partial agonist
- EC50 [4]: 90 nM
- type of agonism at mTAAR1 [4]: full agonist
- EC50 ([5]; chimeric human/mouse receptor): 25 nM
- type of agonism at cTAAR1 [5]: partial agonist

SMILES: c1ccc(Cc2ncc[nH]2)cc1 [6a]
- Ki [6]: 1880 nM

SMILES: CCN(Cc1ncc[nH]1)c1ccccc1 [compound 51]
- Ki [6]: 254 to 497 nM

SMILES: c1ccc(CC2=NCCN2)cc1 [5a]
- Ki [6]: 98.4 nM

SMILES: NC1=NC2(CCc3cccc(Cl)c3C2)CO1 (stereo not drawn) [S18616]
- EC50 [7]: 15 nM
- EC50 ([2]; S18616): 0.7 nM

SMILES: CC(C)N(Cc1c[nH]cn1)c1ccc(Cl)cc1 [compound 24]
- Ki [6]: 840 nM

SMILES: N=C(N)NC(=O)Cc1c(Cl)cccc1Cl [guanfacine]
- type of agonism at hTAAR1 ([1]; cAMP BRET, HEK293): full agonists
- EC50 ([1]; cAMP BRET): 20 nM
- Emax ([1]; cAMP BRET, HEK293, read-out: hTAAR1 Emax): > 85%
- effect on locomotor activity [8]: decreased locomotor activity
- EC50 ([2]; guanfacine): ~25.1 nM
- adverse effects ([9]; higher doses (10 mg/Kg)): provoked more relevant adverse effects
- effect on working memory ([9]; low doses (0.5–1 mg/Kg)): improved working memory without reducing blood pressure or causing significant sedation

SMILES: NCCc1ccccc1 [β-PEA, β-phenylethylamine]
- EC50 ([1]; cAMP BRET): 202 nM
